{"source": "patent US20130237550A1", "about": "“ARYLVINYLAZACYCLOALKANE COMPOUNDS FOR CONSTIPATION” (TARGACEPT, INC., priority 2010, published 2013)", "key": {"[1]": {"system": "Taxol®-induced neuropathy", "assay": "Taxol-induced (chemotherapy induced) neuropathy model", "type": "in vivo"}, "[2]": {"system": "rat Streptozotocin-induced diabetic neuropathy model", "assay": "Streptozotocin-induced diabetic neuropathy (allodynia) model", "type": "in vivo", "details": "STZ rat; for pain sensitivity (allodynia testing of the hindpaw): Week 6, versus vehicle-treated animals", "from_the_text": "Preclinically, in two animal models of neuropathic pain, repeat administration of Compound A produced significant analgesia. […] With reference to WO 08/157,365, the rat Streptozotocin-induced diabetic neuropathy model is a clinically relevant model of diabetic neuropathy, which replicates elements of the human situation diabetic condition such as high glucose levels, neuropathic pain in the extremities, and generally poor health."}, "[3]": {"biological_target": "α4β2 nueronal nicotinic receptors (Homo sapiens, UniProt P17787+P43681)", "sequence (P43681 29-627 limits assumed)": "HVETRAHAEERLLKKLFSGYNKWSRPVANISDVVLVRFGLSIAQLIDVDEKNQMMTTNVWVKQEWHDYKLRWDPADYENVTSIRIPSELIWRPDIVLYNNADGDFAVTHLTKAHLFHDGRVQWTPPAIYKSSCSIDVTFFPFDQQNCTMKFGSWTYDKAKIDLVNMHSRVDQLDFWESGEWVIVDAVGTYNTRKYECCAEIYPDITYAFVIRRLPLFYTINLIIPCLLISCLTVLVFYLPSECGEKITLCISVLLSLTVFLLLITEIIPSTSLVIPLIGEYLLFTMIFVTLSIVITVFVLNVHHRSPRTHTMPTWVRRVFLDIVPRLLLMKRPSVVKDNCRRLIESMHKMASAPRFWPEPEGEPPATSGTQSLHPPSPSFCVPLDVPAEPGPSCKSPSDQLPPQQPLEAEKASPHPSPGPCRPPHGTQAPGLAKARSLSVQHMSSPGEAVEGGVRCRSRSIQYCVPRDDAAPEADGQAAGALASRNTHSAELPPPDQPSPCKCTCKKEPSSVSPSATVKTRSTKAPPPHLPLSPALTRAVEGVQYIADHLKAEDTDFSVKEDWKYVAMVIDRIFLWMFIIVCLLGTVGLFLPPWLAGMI", "sequence (P17787 26-502)": "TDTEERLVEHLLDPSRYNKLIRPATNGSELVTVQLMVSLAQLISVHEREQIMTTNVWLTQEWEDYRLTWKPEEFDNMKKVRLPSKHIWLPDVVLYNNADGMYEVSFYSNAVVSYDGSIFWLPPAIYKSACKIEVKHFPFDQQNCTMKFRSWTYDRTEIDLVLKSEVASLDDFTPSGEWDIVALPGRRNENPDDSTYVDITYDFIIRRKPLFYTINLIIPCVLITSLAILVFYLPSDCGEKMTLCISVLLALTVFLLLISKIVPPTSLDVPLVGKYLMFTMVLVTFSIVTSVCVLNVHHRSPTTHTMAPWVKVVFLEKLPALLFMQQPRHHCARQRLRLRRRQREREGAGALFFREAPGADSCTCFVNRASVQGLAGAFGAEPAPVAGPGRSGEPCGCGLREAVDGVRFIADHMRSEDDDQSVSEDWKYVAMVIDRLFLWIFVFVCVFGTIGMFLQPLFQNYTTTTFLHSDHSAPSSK", "assay": "Agonism at α4β2 neuronal nicotinic receptors (statement)"}, "[4]": {"biological_target": "α3β4 nueronal nicotinic receptors (Homo sapiens, UniProt P30926+P32297)", "sequence (P32297 32-505)": "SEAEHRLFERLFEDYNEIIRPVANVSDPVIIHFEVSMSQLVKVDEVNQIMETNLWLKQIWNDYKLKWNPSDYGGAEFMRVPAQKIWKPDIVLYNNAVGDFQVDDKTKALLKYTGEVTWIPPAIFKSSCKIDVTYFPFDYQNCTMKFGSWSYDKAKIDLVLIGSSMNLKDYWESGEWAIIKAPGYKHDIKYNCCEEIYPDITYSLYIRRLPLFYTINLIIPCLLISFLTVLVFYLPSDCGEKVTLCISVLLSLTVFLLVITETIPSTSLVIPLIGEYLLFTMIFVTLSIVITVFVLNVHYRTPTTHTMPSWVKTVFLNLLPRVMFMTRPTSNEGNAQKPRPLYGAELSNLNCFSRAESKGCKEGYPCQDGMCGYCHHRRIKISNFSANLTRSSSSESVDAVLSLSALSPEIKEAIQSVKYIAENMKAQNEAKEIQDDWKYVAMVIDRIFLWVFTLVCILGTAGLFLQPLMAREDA", "sequence (P30926 22-498)": "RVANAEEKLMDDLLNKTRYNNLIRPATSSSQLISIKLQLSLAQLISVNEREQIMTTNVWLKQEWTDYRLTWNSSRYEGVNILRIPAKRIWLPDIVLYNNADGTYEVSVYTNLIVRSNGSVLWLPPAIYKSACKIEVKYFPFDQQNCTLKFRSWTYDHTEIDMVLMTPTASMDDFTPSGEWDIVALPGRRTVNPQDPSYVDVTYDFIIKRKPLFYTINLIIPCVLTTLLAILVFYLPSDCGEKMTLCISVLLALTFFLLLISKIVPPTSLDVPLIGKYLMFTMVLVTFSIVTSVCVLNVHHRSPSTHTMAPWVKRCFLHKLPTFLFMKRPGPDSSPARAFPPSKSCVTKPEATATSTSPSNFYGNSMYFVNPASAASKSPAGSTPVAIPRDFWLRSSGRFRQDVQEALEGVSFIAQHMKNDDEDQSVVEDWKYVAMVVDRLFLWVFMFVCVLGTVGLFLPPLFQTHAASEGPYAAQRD", "assay": "Agonism at α3β4 neuronal nicotinic receptors (statement)"}, "[5]": {"assay": "Single (SRD) and multiple rising dose (MRD) studies in normal healthy subjects", "type": "in vivo, human", "details": "oral; human plasma; read-out: systemic (plasma) half-life", "description": "(§1) In the MRD study, following doses 10 mg administered 4 times daily, nausea and vomiting typically occurred within 30 min of dosing—prior to significant systemic absorption. Diarrhea was typically observed more than 5 hours following dosing, when systemic concentrations were approximately 20% of Cmax values. […] Such pharmacodynamic GI motility responses appear to correlate primarily with local effects (possibly agonism of α3β4 receptors located on enterochromaffin cells) rather than systemic plasma concentrations."}, "normal healthy subjects": {"system": "normal healthy subjects", "assay": "Single (SRD) and multiple rising dose (MRD) studies in normal healthy subjects", "type": "in vivo, human", "description": "as §1"}, "subjects with IBS-C": {"system": "subjects with IBS-C", "assay": "Randomized, double-blind, placebo controlled proof of principle study in IBS-C", "type": "in vivo, human", "description": "A randomized, double-blind, placebo controlled, parallel group, proof of principle study to evaluate the safety, tolerability, and efficacy of Compound A in the treatment of Constipation-Predominant Irritable Bowel Syndrome was conducted.\nThe objectives of the study include the following: to assess the efficacy of Compound A in the treatment of Constipation Predominant Irritable Bowel Syndrome (IBS-C); and to assess the safety, tolerability and pharmacokinetic profile of Compound A in subjects with IBS-C when administered as a enteric coated capsule for a period of 28 days.\nSubjects with constipation predominant irritable bowel syndrome (IBS-C) defined by: the ROME III criteria as: recurrent abdominal pain or discomfort at least 3 days per month, during the previous 3 months that is associated with 2 or more of the following: (1) relieved by defecation; (2) onset associated with a change in stool frequency; and/or (3) onset associated with a change in stool appearance.\nTreatment included 5 mg daily (as Enteric Coated capsule) for 14 days followed by 5 mg BID for another 14 days. One endpoint includes global IBS symptom relief (7-point scale). Another endpoint includes bowel movement frequency, pain, bloating, straining, stool consistency, and frequency of rescue medication (laxative). Statistically, a was set to 0.1."}}, "data": [{"molecule": "NCC1(CC(=O)O)CCCCC1", "note": "[Gabapentin, reference compound]", "values": [{"measurement": "analgesic effect (allodynia)", "setting": "[1]; acutely administered", "value": "analgesic effect"}]}, {"molecule": "insulin: insulin-treated group in the STZ-rat model of diabetic neuropathy [reference compound]", "values": [{"measurement": "blood glucose levels", "setting": "[2]", "value": "reduced blood glucose levels"}, {"measurement": "pain sensitivity (allodynia testing of the hindpaw)", "setting": "[2]", "value": "did not have significant improvement in pain sensitivity"}]}, {"molecule": "C(=C\\[C@H]1CCNC1)/c1cncnc1", "note": "[Compound A, (R)-5-((E)-2-pyrrolidin-3-ylvinyl)pyrimidine]", "values": [{"measurement": "receptor activity type", "setting": "[3]", "value": "agonist"}, {"measurement": "receptor activity type", "setting": "[4]", "value": "agonist"}, {"measurement": "blood glucose levels", "setting": "[2]", "value": "absence of any changes to blood glucose levels"}, {"measurement": "pain sensitivity (allodynia testing of the hindpaw)", "setting": "[2]", "value": "significant reversal of this pain"}, {"measurement": "analgesic effect (allodynia)", "setting": "[1]; chronically administered", "value": "analgesic effect"}, {"measurement": "half-life", "setting": "[5]", "value": "≤ 1", "unit": "h"}, {"measurement": "time of diarrhea after dosing", "setting": "normal healthy subjects; MRD study, 10 mg 4 times daily", "value": "more than 5 hours"}, {"measurement": "time of nausea and vomiting after dosing", "setting": "normal healthy subjects; MRD study, 10 mg 4 times daily", "value": "≤ 30", "unit": "min"}, {"measurement": "systemic concentration when diarrhea observed", "setting": "normal healthy subjects; MRD study, more than 5 hours following dosing", "value": "approximately 20 % of Cmax values"}, {"measurement": "most commonly observed adverse events", "setting": "normal healthy subjects; SRD and MRD studies, healthy subjects", "value": "nausea, vomiting and diarrhea"}, {"measurement": "GI motility", "setting": "normal healthy subjects; healthy human subjects", "value": "increase in GI motility"}, {"measurement": "analgesic properties", "setting": "subjects with IBS-C; IBS-C subjects", "value": "appears to lack analgesic properties"}, {"measurement": "most commonly reported adverse events", "setting": "subjects with IBS-C; IBS-C subjects, 28 days", "value": "headache or gastrointestinal"}, {"measurement": "severity of adverse events", "setting": "subjects with IBS-C; IBS-C subjects, 28 days", "value": "mild to moderate"}, {"measurement": "tolerability", "setting": "subjects with IBS-C; enteric coated capsule, 5 mg daily 14 days then 5 mg BID 14 days", "value": "generally well tolerated"}, {"measurement": "spontaneous bowel movements (SBM)", "setting": "subjects with IBS-C; versus placebo, maintained over at least 1 month", "value": "robust increases"}, {"measurement": "SBM relative to Tegaserod, Lubiprostone and Linaclotide", "setting": "subjects with IBS-C; week 4, FIG. 2, comparator data from literature", "value": "compares favorably"}]}]}
